Where two headings read alike, the source gives them in different places. Residues, ends and D or L forms follow the SMILES beside them.
Key:
[1] = target: T1, 15N-Aβ40 (Homo sapiens, UniProt P05067); assay: biochemical; type: binding
T1 construct: Uniformly isotopically ^15N -labelled Amyloid-β1-40 (Aβ40); purchased AlexoTech AB, Umeå, Sweden AB-100-05

[2] = test system: neuroblastoma cells; conditions: cited from earlier work
[3] = type: biochemical; conditions: pH 7.4
[4] = type: biochemical; conditions: pH 7.4; remark: listed apart in the source
[5] = target: T2, Aβ42 (Homo sapiens, UniProt P05067); type: biochemical; conditions: pH 7.3
T2 construct: Recombinant Amyloid-β1-42 (Aβ42) wild type peptide; purchased rPeptide, Watkinsville, USA A-1163-2
T2 sequence (P05067 672-713): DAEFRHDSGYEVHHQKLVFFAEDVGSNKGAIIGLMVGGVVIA

[6] = target: T2, Aβ42; type: biochemical; conditions: pH 8
[7] = target: T2, Aβ42; type: biochemical; conditions: pH 7.8
[8] = target: T2, Aβ42; type: biochemical
[9] = target: T2, Aβ42; type: binding; conditions: pH 8.3
[10] = target: T2, Aβ42; type: binding
[11] = target: T1, 15N-Aβ40; type: biochemical; conditions: pH 7.35
[12] = pH 7.4
[13] = target: T3, Aβ40 (Homo sapiens, UniProt P05067); type: biochemical
T3 construct: Recombinant Amyloid-β1-40 (Aβ40) wild type peptide; purchased AlexoTech AB, Umeå, Sweden AB-100-10
T3 sequence (P05067 672-711): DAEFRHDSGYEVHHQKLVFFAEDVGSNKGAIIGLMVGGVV

[14] = target: T3, Aβ40; type: biochemical; remark: listed apart in the source

T1 sequence (P05067 672-711): as above

CC[C@H](C)[C@H](NC(=O)[C@H](CC(C)C)NC(=O)[C@H](CC(=O)O)NC(=O)[C@H](CCCCN)NC(=O)[C@@H](NC(=O)[C@H](CCCNC(=N)N)NC(=O)[C@H](CC(C)C)NC(=O)[C@@H](N)CCSC)[C@@H](C)O)C(=O)N[C@@H](Cc1c[nH]c2ccccc12)C(=O)N[C@H](C(=O)N[C@@H](CC(C)C)C(=O)N[C@@H](Cc1ccccc1)C(=O)N[C@@H](Cc1ccccc1)C(=O)N[C@@H](CC(C)C)C(=O)NCC(=O)N[C@H](C(=O)N[C@@H](C)C(=O)N[C@H](C(=O)N[C@@H](CO)C(=O)N[C@@H](CCCCN)C(=O)N[C@@H](CCCCN)C(=O)N[C@@H](CCCNC(=N)N)C(=O)N1CCC[C@H]1C(=O)N[C@@H](CCCCN)C(=O)N1CCC[C@H]1C(N)=O)C(C)C)[C@@H](C)O)[C@@H](C)O [NCAM-PrP] (H-MLRTKDLIWTLFFLGTAVSKKRPKP-NH2)
Kd [1]: ~160 µM | effect on Aβ-induced cytotoxicity in cells [2]: attenuates Aβ-induced cytotoxicity in cells | toxicity [2]: not toxic at the concentrations studied

DAEFR5HDSGY10EVHHQ15KLVFF20AEDVG25SNKGA30IIGLM35VGGVV40IA [Aβ42, Recombinant Amyloid-β1-42 (Aβ42) wild type peptide]
calcein leakage by monomeric Aβ42 [3]: around 10% | calcein leakage by monomeric Aβ42 [4]: around 10% | time at which normalized CD signals at 198 and 220 nm meet, Aβ42 alone [5]: approximately one | β-sheet formation of Aβ42 alone [5]: transitioned into a mostly β-sheet state within 4 h | aggregation half-time τ½, Aβ42 alone [6]: about 4 h | aggregation half-time τ½, Aβ42 alone + NaF [6]: approximately 2.5 h | effect of 10% pre-formed seeds on Aβ42 amyloid formation, no NCAM-PrP [7]: the amyloid formation was enhanced | fibril diameter by AFM, Aβ42 alone [8]: approximately 10 nm | oligomeric state of Aβ42, aqueous [9]: mostly monomeric peptide with a rich population of small and heterogeneous oligomers | share of tetramer in the Aβ42 oligomeric population [10]: about 50%

Aβ: Amyloid-β (Aβ) peptide, 40 or 42 residues long; in b38 15N-Aβ40
aggregation of Aβ40 alone (HSQC signal intensity) [11]: started to aggregate during the incubation | secondary structure in SDS micelles [12]: α-helical secondary structures

Aβ40: Recombinant Amyloid-β1-40 (Aβ40) wild type peptide
secondary structure by FTIR [13]: both random coil and β-sheet conformations | aggregation half-time τ½, Aβ40 alone + NaF [14]: 2 h | aggregation half-time τ½, Aβ40 alone ([14]; pH 7.3): approximately 6 h

Reference: publication PMC8340127 (iScience, 2021)
